Laboratory results published in US20250214991A1 (Oncopia Therapeutics, Inc. d/b/a/ SK Life Science Labs, priority 2022, published 2025).

What was measured:
CRBN/DDB1 = CRBN/DDB1 (Homo sapiens (Human), UniProt Q96SW2); assay: IC50 measurements for binding to CRBN/DDB1 (HTRF); conditions: His tagged CRBN+DDB, Cy5-labeled Thalidomide probe, one hour
Outline: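 HTRF competition binding with 2 nM His-tagged CRBN-DDB1 complex, 60 nM Cy5-thalidomide probe and 0.4 nM anti-His Tb cryptate in 50 mM HEPES pH 7.5, 1 mM TCEP, 0.01% Brij-35, 50 mM NaCl, 0.1% BSA. Read after 1 h at room temperature; IC50 from four-parameter dose-response fit.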

IKZF2 [1] = molecular target: T1, IKZF2 (Homo sapiens (Human), UniProt Q96SW2+Q9UKS7); assay: In vitro IKZF2 FACS Assay in Jurkat cells; assay type: cell-based; conditions: 24 hrs; for DC50: half maximal degradation concentration; for Dmax: maximal degradation percentage
Protocol: In vitro IKZF2 FACS Assay
DC50, A: <1 nM; B: 1-10 nM; C: 10-100 nM; D: 100-1000 nM; E: >1000 nM. Dmax, A: >80%; B: 60-80%; C: 40-60%; D: 20-40%; E: <20%.

IKZF1 = IKZF1 (Homo sapiens (Human), UniProt Q13422+Q96SW2); assay: In vitro IKZF1 HiBit Assay (HEK293T Flp-in-HiBiT-IKZF1 stable cell line); assay type: cell-based; conditions: HEK293T Flp-in-HiBiT-IKZF1 stable cell line, 6 hrs incubation; for DC50: read-out: IKZF1 HiBit DC50; for Dmax: HEK-293T, read-out: IKZF1 HiBit Dmax (%)
Outline: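 HEK293T Flp-in cells carrying N-terminal HiBiT-tagged IKZF1 were exposed to compound (0.1% DMSO) for 6 h at 3000 cells/well. HiBiT luminescence was read after lytic LgBiT detection. DC50 and Dmax were taken from DMSO-normalized dose-response curves.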

IKZF2 [2] = molecular target: T1, IKZF2; assay: In vitro IKZF2 HiBit Assay (HEK293T Flp-in-HiBiT cells); assay type: cell-based; conditions: HEK293T Flp-in-HiBiT cells, 6 hrs incubation; for DC50: read-out: IKZF2 HiBit DC50; for Dmax: HEK-293T, read-out: IKZF2 HiBit Dmax (%)
Outline: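 HEK293T Flp-in cells carrying an endogenous N-terminal HiBiT tag on IKZF2 were exposed to compound for 6 h at 0.1% DMSO. The dilution series was 11 doses at 3-fold, diluted from 1 mM. Nano-Glo HiBiT lytic luminescence, normalized to DMSO, gave DC50 for 50% degradation and Dmax across the concentration range, both reported in letter bins.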

T1 sequence (Q9UKS7 whole entry): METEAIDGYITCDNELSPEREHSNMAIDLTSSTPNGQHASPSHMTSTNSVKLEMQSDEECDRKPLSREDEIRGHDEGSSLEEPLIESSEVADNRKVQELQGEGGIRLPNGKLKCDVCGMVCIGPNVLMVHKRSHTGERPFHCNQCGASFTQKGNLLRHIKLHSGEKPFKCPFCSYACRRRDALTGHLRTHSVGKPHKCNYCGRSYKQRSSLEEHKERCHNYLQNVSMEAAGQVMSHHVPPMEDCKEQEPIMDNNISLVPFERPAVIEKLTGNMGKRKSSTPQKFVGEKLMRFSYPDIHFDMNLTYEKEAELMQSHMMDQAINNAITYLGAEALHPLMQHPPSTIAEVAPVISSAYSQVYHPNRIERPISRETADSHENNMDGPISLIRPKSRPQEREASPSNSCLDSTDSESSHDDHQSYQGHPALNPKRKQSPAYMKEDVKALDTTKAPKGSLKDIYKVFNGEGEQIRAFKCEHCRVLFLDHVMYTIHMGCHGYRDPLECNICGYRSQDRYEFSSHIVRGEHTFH
T1 sequence (Q96SW2 whole entry): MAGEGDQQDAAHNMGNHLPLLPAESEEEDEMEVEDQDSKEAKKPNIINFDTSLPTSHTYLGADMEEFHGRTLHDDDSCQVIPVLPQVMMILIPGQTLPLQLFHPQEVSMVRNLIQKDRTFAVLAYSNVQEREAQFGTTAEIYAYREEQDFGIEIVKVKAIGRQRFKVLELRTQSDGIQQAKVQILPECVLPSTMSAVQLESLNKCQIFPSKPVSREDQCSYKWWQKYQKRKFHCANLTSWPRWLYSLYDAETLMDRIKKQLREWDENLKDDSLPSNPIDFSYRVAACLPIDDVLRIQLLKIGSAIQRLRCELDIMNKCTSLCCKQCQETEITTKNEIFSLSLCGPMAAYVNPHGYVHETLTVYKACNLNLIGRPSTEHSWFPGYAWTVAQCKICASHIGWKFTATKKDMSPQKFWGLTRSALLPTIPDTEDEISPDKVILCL
T1 sequence (Q16531 2-1140 partner): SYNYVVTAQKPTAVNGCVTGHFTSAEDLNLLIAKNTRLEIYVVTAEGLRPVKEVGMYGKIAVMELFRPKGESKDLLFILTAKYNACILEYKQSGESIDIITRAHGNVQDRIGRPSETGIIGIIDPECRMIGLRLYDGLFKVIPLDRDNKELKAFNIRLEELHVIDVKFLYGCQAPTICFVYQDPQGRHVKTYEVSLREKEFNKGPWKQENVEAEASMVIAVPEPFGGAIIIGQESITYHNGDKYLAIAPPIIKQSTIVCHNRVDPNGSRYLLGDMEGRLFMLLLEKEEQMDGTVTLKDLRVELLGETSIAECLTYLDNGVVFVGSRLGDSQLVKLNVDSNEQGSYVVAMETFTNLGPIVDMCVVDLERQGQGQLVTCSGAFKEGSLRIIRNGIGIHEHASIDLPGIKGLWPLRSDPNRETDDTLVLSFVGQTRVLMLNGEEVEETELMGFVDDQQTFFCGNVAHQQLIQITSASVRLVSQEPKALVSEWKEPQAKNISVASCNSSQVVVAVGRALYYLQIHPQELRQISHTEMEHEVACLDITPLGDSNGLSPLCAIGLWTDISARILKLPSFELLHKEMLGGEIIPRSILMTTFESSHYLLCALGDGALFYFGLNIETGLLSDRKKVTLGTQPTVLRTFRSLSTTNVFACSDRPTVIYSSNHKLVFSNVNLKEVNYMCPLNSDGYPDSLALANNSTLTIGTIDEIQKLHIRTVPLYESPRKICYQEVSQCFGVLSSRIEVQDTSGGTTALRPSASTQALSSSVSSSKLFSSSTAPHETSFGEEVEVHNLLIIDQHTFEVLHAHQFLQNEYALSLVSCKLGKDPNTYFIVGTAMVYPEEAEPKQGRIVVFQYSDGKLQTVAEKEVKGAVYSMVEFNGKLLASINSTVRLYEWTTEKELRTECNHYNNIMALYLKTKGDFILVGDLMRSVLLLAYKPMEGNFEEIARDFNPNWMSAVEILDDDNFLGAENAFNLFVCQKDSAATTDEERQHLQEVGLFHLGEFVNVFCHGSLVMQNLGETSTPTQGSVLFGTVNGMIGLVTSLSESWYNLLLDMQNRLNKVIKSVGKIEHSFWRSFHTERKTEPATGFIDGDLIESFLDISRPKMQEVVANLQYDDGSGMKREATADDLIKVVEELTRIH
Sequence of IKZF1 (Q13422 whole entry): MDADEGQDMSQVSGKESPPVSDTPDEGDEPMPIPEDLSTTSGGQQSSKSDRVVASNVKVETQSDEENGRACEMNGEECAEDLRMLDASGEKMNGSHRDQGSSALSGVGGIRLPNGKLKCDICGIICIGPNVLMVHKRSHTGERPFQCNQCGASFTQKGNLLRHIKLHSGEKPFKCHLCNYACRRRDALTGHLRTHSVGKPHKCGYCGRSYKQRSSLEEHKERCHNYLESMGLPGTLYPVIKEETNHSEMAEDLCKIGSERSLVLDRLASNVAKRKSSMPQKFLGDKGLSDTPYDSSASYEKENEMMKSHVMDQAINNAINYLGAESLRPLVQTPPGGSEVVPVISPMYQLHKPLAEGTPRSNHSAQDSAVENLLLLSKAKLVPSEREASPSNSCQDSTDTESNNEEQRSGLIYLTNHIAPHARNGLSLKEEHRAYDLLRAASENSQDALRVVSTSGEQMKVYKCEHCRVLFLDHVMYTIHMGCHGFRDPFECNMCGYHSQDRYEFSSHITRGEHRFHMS
Sequence of IKZF1 (Q96SW2 whole entry): as the sequence (Q96SW2 whole entry) above
Sequence of IKZF1 (Q16531 2-1140 partner): as the sequence (Q16531 2-1140 partner) above
Sequence of CRBN/DDB1 (Q96SW2 whole entry, species assumed): as the sequence (Q96SW2 whole entry) above
Sequence of CRBN/DDB1 (Q16531 whole entry partner, species assumed): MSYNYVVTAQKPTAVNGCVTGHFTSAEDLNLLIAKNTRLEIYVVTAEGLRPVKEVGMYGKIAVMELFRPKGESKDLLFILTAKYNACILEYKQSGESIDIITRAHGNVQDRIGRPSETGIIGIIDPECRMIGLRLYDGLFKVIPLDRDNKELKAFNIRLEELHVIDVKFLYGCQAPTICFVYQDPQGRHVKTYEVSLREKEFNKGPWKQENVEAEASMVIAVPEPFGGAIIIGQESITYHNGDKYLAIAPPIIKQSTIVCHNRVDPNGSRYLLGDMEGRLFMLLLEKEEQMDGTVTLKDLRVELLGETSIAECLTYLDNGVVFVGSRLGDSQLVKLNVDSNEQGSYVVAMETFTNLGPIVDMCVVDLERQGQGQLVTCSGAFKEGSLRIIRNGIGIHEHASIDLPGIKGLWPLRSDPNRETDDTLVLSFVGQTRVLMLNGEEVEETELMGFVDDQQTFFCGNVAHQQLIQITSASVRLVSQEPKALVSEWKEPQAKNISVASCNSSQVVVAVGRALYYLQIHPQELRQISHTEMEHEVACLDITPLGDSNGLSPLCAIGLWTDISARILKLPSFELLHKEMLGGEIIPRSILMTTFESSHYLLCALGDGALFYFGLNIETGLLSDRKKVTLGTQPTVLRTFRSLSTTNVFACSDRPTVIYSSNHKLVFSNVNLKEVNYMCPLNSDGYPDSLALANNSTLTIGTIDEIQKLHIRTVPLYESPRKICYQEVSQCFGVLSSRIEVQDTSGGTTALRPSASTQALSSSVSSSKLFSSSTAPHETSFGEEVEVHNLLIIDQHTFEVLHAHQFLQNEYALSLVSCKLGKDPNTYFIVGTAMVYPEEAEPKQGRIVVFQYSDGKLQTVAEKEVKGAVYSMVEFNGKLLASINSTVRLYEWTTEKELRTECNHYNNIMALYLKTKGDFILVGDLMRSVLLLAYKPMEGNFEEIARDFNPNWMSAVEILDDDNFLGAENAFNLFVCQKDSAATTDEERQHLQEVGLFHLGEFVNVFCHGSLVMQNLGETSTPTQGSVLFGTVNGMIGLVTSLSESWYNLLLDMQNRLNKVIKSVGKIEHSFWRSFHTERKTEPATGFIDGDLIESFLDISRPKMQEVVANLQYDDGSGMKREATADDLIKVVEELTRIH

Structure (SMILES) | IC50 (CRBN/DDB1) | DC50 (IKZF2 [1]) | Dmax (IKZF2 [1]) | DC50 (IKZF1) | Dmax (IKZF1) | DC50 (IKZF2 [2]) | Dmax (IKZF2 [2])
C[C@H](NCc1cc(-c2ccc3c(c2)CN(C2CCC(=O)NC2=O)C3=O)n2cncc2c1)c1ccccc1 (single isomer, unassigned) [Example 14, 3-(1-oxo-5-(7-((((S*)-1-phenylethyl)amino)methyl)imidazo[1,5-a]pyridin-5-yl)isoindolin-2-yl) piperidine-2,6-dione] | 100 to 500 nM | 10 to 100 nM | 40 to 60% | – | – | – | –
C[C@@H](c1ccccc1)N(C)Cc1cc(-c2ccc3c(c2)CN(C2CCC(=O)NC2=O)C3=O)n2cncc2c1 (single isomer, unassigned) [Example 15, 3-(5-(7-((methyl ((S*)-1-phenylethyl)amino)methyl)imidazo[1,5-a]pyridin-5-yl)-1-oxoisoindolin-2-yl) piperidine-2,6-dione] | 1000 to 5000 nM | 10 to 100 nM | 20 to 40% | – | – | – | –
C[C@@H](NCc1cc(-c2ccc3c(c2)CN(C2CCC(=O)NC2=O)C3=O)n2cncc2c1)c1ccccc1 (single isomer, unassigned) [Example 16, 3-(1-oxo-5-(7-((((R*)-1-phenylethyl)amino)methyl)imidazo[1,5-a]pyridin-5-yl)isoindolin-2-yl) piperidine-2,6-dione] | 500 to 1000 nM | 10 to 100 nM | 40 to 60% | – | – | – | –
C[C@H](c1ccccc1)N(C)Cc1cc(-c2ccc3c(c2)CN(C2CCC(=O)NC2=O)C3=O)n2cncc2c1 (single isomer, unassigned) [Example 17, 3-(5-(7-((methyl ((R*)-1-phenylethyl)amino)methyl)imidazo[1,5-a]pyridin-5-yl)-1-oxoisoindolin-2-yl) piperidine-2,6-dione] | 1000 to 5000 nM | 10 to 100 nM | 20 to 40% | – | – | – | –
O=C1CCC(N2Cc3cc(-c4cc(CN5CCC5)cc5cncn45)ccc3C2=O)C(=O)N1 (stereo not drawn) [Example 2, 3-(5-(7-(azetidin-1-ylmethyl)imidazo[1,5-a]pyridin-5-yl)-1-oxoisoindolin-2-yl) piperidine-2,6-dione] | 100 to 500 nM | 100 to 1000 nM | 40 to 60% | – | – | – | –
Cn1ccc2c(CN3CCCC3)c(Cl)c(-c3ccc4c(c3F)CN(C3CCC(=O)NC3=O)C4=O)nc21 (stereo not drawn) [Example 277, 3-(5-(5-chloro-1-methyl-4-(pyrrolidin-1-ylmethyl)-1H-pyrrolo[2,3-b]pyridin-6-yl)-4-fluoro-1-oxoisoindolin-2-yl) piperidine-2,6-dione] | – | 1 to 10 nM | > 80% | > 10000 nM | < 20% | < 1 nM | > 80%
CO[C@H]1C[C@H](Oc2ccnc3c(CN4CCCC4)cc(-c4ccc5c(c4)CN(C4CCC(=O)NC4=O)C5=O)nc23)C1 (stereo partly drawn) [Example 280, 3-(5-(8-((1r,3r)-3-methoxycyclobutoxy)-4-(pyrrolidin-1-ylmethyl)-1,5-naphthyridin-2-yl)-1-oxoisoindolin-2-yl) piperidine-2,6-dione] | – | 10 to 100 nM | 60 to 80% | > 10000 nM | < 20% | 10 to 100 nM | 60 to 80%
CC(C)Nc1n[nH]c2c(CN3CCC(F)CC3)cc(-c3ccc4c(c3F)CN(C3CCC(=O)NC3=O)C4=O)nc12 (stereo not drawn) [Example 282, 3-(4-fluoro-5-(7-((4-fluoropiperidin-1-yl)methyl)-3-(isopropylamino)-1H-pyrazolo[4,3-b]pyridin-5-yl)-1-oxoisoindolin-2-yl) piperidine-2,6-dione] | – | 10 to 100 nM | > 80% | 1000 to 10000 nM | 20 to 40% | 1 to 10 nM | > 80%
COC1CCN(Cc2cc(-c3ccc4c(c3F)CN(C3CCC(=O)NC3=O)C4=O)nc3c(NC(C)C)n[nH]c23)CC1 (stereo not drawn) [Example 283, 3-(4-fluoro-5-(3-(isopropylamino)-7-((4-methoxypiperidin-1-yl)methyl)-1H-pyrazolo[4,3-b]pyridin-5-yl)-1-oxoisoindolin-2-yl) piperidine-2,6-dione] | – | 1 to 10 nM | > 80% | > 10000 nM | < 20% | 1 to 10 nM | > 80%
CC(C)Nc1n[nH]c2c(CN3CCC4(CC3)COC4)cc(-c3ccc4c(c3F)CN(C3CCC(=O)NC3=O)C4=O)nc12 (stereo not drawn) [Example 284, 3-(5-(7-((2-oxa-7-azaspiro[3.5]nonan-7-yl)methyl)-3-(isopropylamino)-1H-pyrazolo[4,3-b]pyridin-5-yl)-4-fluoro-1-oxoisoindolin-2-yl) piperidine-2,6-dione] | – | 10 to 100 nM | 60 to 80% | 10 to 100 nM | 20 to 40% | 1 to 10 nM | > 80%
CC(C)Nc1n[nH]c2c(CN3CC4COCC4C3)cc(-c3ccc4c(c3F)CN(C3CCC(=O)NC3=O)C4=O)nc12 (stereo not drawn) [Example 288, 3-(4-fluoro-5-(3-(isopropylamino)-7-((tetrahydro-1H-furo[3,4-c]pyrrol-5 (3H)-yl)methyl)-1H-pyrazolo[4,3-b]pyridin-5-yl)-1-oxoisoindolin-2-yl) piperidine-2,6-dione] | – | 10 to 100 nM | 60 to 80% | > 10000 nM | < 20% | 1 to 10 nM | > 80%
CC(C)Nc1n[nH]c2c(CN3CC4(CCOCC4)C3)cc(-c3ccc4c(c3F)CN(C3CCC(=O)NC3=O)C4=O)nc12 (stereo not drawn) [Example 289, 3-(5-(7-((7-oxa-2-azaspiro[3.5]nonan-2-yl)methyl)-3-(isopropylamino)-1H-pyrazolo[4,3-b]pyridin-5-yl)-4-fluoro-1-oxoisoindolin-2-yl) piperidine-2,6-dione] | – | 1 to 10 nM | > 80% | 10 to 100 nM | 40 to 60% | 1 to 10 nM | > 80%
CC(C)Nc1n[nH]c2c(CN3CCC(C(F)(F)F)CC3)cc(-c3ccc4c(c3F)CN(C3CCC(=O)NC3=O)C4=O)nc12 (stereo not drawn) [Example 290, 3-(4-fluoro-5-(3-(isopropylamino)-7-((4-(trifluoromethyl)piperidin-1-yl)methyl)-2H-pyrazolo[4,3-b]pyridin-5-yl)-1-oxoisoindolin-2-yl) piperidine-2,6-dione] | – | 10 to 100 nM | 60 to 80% | > 10000 nM | < 20% | 1 to 10 nM | 60 to 80%
CCNc1n[nH]c2c(CN3CCCC3)cc(-c3ccc4c(c3F)CN(C3CCC(=O)NC3=O)C4=O)nc12 (stereo not drawn) [Example 291, 3-(5-(3-(ethylamino)-7-(pyrrolidin-1-ylmethyl)-1H-pyrazolo[4,3-b]pyridin-5-yl)-4-fluoro-1-oxoisoindolin-2-yl) piperidine-2,6-dione] | – | < 1 nM | > 80% | 10 to 100 nM | 40 to 60% | < 1 nM | > 80%
CC1c2cc(-c3cc(CN4CCCC4)c4ccn(C5CS(=O)(=O)C5)c4n3)ccc2C(=O)N1C1CCC(=O)NC1=O (stereo not drawn) [Example 292, 3-(5-(1-(1,1-dioxidothietan-3-yl)-4-(pyrrolidin-1-ylmethyl)-1H-pyrrolo[2,3-b]pyridin-6-yl)-3-methyl-1-oxoisoindolin-2-yl) piperidine-2,6-dione] | – | 1 to 10 nM | > 80% | 10 to 100 nM | 20 to 40% | 1 to 10 nM | > 80%
CC(C)Nc1n[nH]c2c(CN3CCCC3)cc(-c3ccc4c(c3)C(C)N(C3CCC(=O)NC3=O)C4=O)nc12 (stereo not drawn) [Example 293, 3-(5-(3-(isopropylamino)-7-(pyrrolidin-1-ylmethyl)-1H-pyrazolo[4,3-b]pyridin-5-yl)-3-methyl-1-oxoisoindolin-2-vl) piperidine-2,6-dione] | – | 1 to 10 nM | > 80% | > 10000 nM | < 20% | 1 to 10 nM | > 80%
O=C1CCC(N2Cc3c(ccc(-c4cc(CN5CCCC5)c5[nH]nc(NC6CCC6)c5n4)c3F)C2=O)C(=O)N1 (stereo not drawn) [Example 295, 1.3-(5-(3-(cyclobutylamino)-7-(pyrrolidin-1-ylmethyl)-1H-pyrazolo[4,3-b]pyridin-5-yl)-4-fluoro-1-oxoisoindolin-2-yl) piperidine-2,6-dione] | – | 1 to 10 nM | > 80% | 10 to 100 nM | 40 to 60% | < 1 nM | > 80%
Nc1[nH]nc2c(CN3CCCC3)cc(-c3ccc4c(c3F)CN(C3CCC(=O)NC3=O)C4=O)nc12 (stereo not drawn) [Example 318, 3-(5-(3-amino-7-(pyrrolidin-1-ylmethyl)-2H-pyrazolo[4,3-b]pyridin-5-yl)-4-fluoro-1-oxoisoindolin-2-yl) piperidine-2,6-dione] | – | 1 to 10 nM | > 80% | 10 to 100 nM | 60 to 80% | 1 to 10 nM | > 80%
